Test results taken from ChEMBL document CHEMBL1909046, “DrugMatrix in vitro pharmacology data”.

Legend:
[1] = molecular target: T1, Alpha-1D adrenergic receptor (Homo sapiens, UniProt P25100); type: cell membranes, HEK293, Membrane; details: hek293; also: in other assays of this panel Not Active means under 50% inhibition at 10 µM
T1 sequence (P25100 whole entry): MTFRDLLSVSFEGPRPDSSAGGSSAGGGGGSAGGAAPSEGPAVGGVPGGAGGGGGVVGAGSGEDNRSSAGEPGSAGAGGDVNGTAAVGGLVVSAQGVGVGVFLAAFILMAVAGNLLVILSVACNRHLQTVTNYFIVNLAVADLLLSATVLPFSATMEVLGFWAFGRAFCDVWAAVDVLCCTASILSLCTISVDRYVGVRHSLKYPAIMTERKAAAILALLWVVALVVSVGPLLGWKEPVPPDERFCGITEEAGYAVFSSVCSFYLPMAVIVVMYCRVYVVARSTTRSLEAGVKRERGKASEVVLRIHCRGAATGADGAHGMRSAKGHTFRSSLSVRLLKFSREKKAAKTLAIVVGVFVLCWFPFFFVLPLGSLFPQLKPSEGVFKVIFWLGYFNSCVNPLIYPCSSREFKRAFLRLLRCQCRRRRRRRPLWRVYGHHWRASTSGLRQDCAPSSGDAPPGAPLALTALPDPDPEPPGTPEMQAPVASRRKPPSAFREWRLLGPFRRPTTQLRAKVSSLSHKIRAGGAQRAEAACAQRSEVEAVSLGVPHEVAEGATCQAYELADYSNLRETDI

B2 bradykinin receptor = molecular target: T2, B2 bradykinin receptor (Homo sapiens, UniProt P30411); type: cell membranes, Membrane; details: chem-1; also: in other assays of this panel Not Active means under 50% inhibition at 10 µM
T2 sequence (P30411 whole entry): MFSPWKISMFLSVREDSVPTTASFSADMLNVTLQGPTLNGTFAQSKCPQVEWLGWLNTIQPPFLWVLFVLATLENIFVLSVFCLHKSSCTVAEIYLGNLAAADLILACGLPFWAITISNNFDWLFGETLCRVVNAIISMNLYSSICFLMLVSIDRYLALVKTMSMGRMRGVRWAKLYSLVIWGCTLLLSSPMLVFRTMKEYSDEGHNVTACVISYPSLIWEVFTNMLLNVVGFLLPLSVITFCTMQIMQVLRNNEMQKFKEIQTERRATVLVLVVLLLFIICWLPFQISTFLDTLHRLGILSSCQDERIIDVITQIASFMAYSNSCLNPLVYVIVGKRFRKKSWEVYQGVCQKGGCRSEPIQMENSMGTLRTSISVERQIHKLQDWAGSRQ

[2] = DRUGMATRIX: Tumor Necrosis Factor (TNF), Non-Selective radioligand binding (ligand: [125I] TNF-alpha); type: cell membranes, Membrane; details: u-937; Not Active = under 50% inhibition at 10 µM
[3] = DRUGMATRIX: Nicotinic Acetylcholine radioligand binding (ligand: [125I] Epibatidine); type: cell membranes, Membrane; details: imr-32; Not Active = under 50% inhibition at 10 µM
[4] = DRUGMATRIX: Platelet-Derived Growth Factor (PDGF) radioligand binding (ligand: [125I] PDGF); type: cell-based; details: nih3t3; Not Active = under 50% inhibition at 10 µM
Cathepsin G = molecular target: T3, Cathepsin G (Homo sapiens, UniProt P08311); type: tissue-based; details: neutrophil;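 also: inhibition of Cathepsin G enzyme activity, tested on an AMC-conjugated peptide substrate; in other assays of this panel Not Active means under 50% inhibition at 10 µM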
T3 sequence (P08311 whole entry): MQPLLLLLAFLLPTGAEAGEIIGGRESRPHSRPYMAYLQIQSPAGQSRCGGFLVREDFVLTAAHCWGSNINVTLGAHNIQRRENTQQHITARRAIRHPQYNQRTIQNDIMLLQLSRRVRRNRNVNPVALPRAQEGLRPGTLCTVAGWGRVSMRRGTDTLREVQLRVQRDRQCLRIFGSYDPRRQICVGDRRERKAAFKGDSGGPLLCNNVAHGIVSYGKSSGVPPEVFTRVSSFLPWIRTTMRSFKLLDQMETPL

[5] = molecular target: Mitogen-activated protein kinase 14 (Homo sapiens, UniProt Q16539); parameters: species or system Escherichia coli;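 also: inhibition of p38alpha enzyme activity in a biochemical kinase assay, with myelin basic protein serving as substrate; in other assays of this panel Not Active means under 50% inhibition at 10 µM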
Mitogen-activated protein kinase 14, sequence (Q16539 whole entry): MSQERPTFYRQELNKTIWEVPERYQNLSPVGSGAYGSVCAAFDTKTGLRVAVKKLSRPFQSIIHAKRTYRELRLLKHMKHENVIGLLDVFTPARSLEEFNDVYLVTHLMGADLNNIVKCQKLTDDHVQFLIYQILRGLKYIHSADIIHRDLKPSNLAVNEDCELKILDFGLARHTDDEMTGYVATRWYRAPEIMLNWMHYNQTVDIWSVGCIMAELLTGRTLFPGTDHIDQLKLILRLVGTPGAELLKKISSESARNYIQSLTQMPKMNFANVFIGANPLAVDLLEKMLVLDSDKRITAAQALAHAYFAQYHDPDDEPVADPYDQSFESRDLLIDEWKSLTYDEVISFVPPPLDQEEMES

Row | SMILES | IC50 [1] | IC50 (B2 bradykinin receptor) | IC50 [2] | Ki [2] | IC50 [3] | Ki [3] | IC50 [4] | Ki [4] | IC50 (Cathepsin G) | IC50 [5] | IC50 ([5]; read-out: IC50) [µM]
1 | COc1ccccc1N | Not Active | Not Active | Not Active | Not Active | Not Active | Not Active | Not Active | Not Active | Not Active | Not Active | 
2 | Cc1c(O)cccc1C(=O)N[C@@H](CSc1ccccc1)[C@H](O)CN1C[C@H]2CCCC[C@H]2C[C@H]1C(=O)NC(C)(C)C | Not Active | Not Active | Not Active | Not Active | Not Active | Not Active | Not Active | Not Active | Not Active |  | 18.2
3 | ClC(Cl)(Cl)Cl [CARBON TETRACHLORIDE] | Not Active | Not Active | Not Active | Not Active | Not Active | Not Active | Not Active | Not Active | Not Active | Not Active | 
4 | CC(C)NCC(O)c1ccccc1Cl (stereo not given) [CLORPRENALINE] | Not Active | Not Active | Not Active | Not Active | Not Active | Not Active | Not Active | Not Active | Not Active | Not Active | 
5 | C[C@]12CC[C@@H]3c4ccc(O)cc4CC[C@H]3[C@@H]1C[C@@H](O)[C@@H]2O [ESTRIOL] | Not Active | Not Active | Not Active | Not Active | Not Active | Not Active | Not Active | Not Active | Not Active | Not Active | 
6 | C#C[C@]1(O)CC[C@H]2[C@@H]3CCC4=CC(=O)CC[C@]4(C)[C@H]3CC[C@@]21C [ETHISTERONE] | Not Active | Not Active | Not Active | Not Active | Not Active | Not Active | Not Active | Not Active | Not Active | Not Active | 
7 | CC(O)(P(=O)(O)O)P(=O)(O)O [ETIDRONIC ACID] | Not Active | Not Active | Not Active | Not Active | Not Active | Not Active | Not Active | Not Active | Not Active | Not Active | 
8 | CC(=O)OCC(=O)[C@@]1(O)CC[C@H]2[C@@H]3CCC4=CC(=O)CC[C@]4(C)[C@@]3(F)[C@@H](O)C[C@@]21C [FLUDROCORTISONE ACETATE] | Not Active | Not Active | Not Active | Not Active | Not Active | Not Active | Not Active | Not Active | Not Active | Not Active | 
9 | CCOC(=O)c1ncn2c1CN(C)C(=O)c1cc(F)ccc1-2 [FLUMAZENIL] | Not Active | Not Active | Not Active | Not Active | Not Active | Not Active | Not Active | Not Active | Not Active | Not Active | 
10 | CC(=O)OCC(=O)[C@@]12OC(C)(C)O[C@@H]1C[C@H]1[C@@H]3C[C@H](F)C4=CC(=O)C=C[C@]4(C)[C@@]3(F)[C@@H](O)C[C@@]12C [FLUOCINONIDE] | Not Active | Not Active | Not Active | Not Active | Not Active | Not Active | Not Active | Not Active | Not Active | Not Active | 
11 | Cc1ccc(C)c(OCCCC(C)(C)C(=O)O)c1 [GEMFIBROZIL] | Not Active | Not Active | Not Active | Not Active | Not Active | Not Active | Not Active | Not Active | Not Active | Not Active | 
12 | CCCCC1=NC2(CCCC2)C(=O)N1Cc1ccc(-c2ccccc2-c2nnn[nH]2)cc1 [IRBESARTAN] | Not Active | Not Active | Not Active | Not Active | Not Active | Not Active | Not Active | Not Active | Not Active | Not Active | 
13 | C[C@H]1COc2c(N3CCN(C)CC3)c(F)cc3c(=O)c(C(=O)O)cn1c23.C[C@H]1COc2c(N3CCN(C)CC3)c(F)cc3c(=O)c(C(=O)O)cn1c23.O [LEVOFLOXACIN] | Not Active | Not Active | Not Active | Not Active | Not Active | Not Active | Not Active | Not Active | Not Active | Not Active | 
14 | CS(=O)(=O)Nc1ccc([N+](=O)[O-])cc1Oc1ccccc1 [NIMESULIDE] | Not Active | Not Active | Not Active | Not Active | Not Active | Not Active | Not Active | Not Active | Not Active | Not Active | 
15 | NC(=O)N1c2ccccc2CC(=O)c2ccccc21 [OXCARBAZEPINE] | Not Active | Not Active | Not Active | Not Active | Not Active | Not Active | Not Active | Not Active | Not Active | Not Active | 
16 | CCN(CC)CCNC(=O)c1ccc(N)cc1 [PROCAINAMIDE] | Not Active | Not Active | Not Active | Not Active | Not Active | Not Active | Not Active | Not Active | Not Active | Not Active | 
17 | C[C@]12C=CC(=O)C=C1CC[C@H]1[C@@H]3C[C@@H](O)[C@](O)(C(=O)CO)[C@@]3(C)C[C@H](O)[C@@]12F [TRIAMCINOLONE] | Not Active | Not Active | Not Active | Not Active | Not Active | Not Active | Not Active | Not Active | Not Active | Not Active | 
18 | CCN(C(C)=O)c1cccc(-c2ccnc3c(C#N)cnn23)c1 [ZALEPLON] | Not Active | Not Active | Not Active | Not Active | Not Active | Not Active | Not Active | Not Active | Not Active | Not Active | 
